Key:
[1] = tested on: ADSCs; assay: Analysis of proliferation rate (Ki67 staining); type: cell-based, human
Method: Four portions of equal volume of the above culture medium containing the sub-cultured ADSCs were separately handled by adding thereinto H2O2 (purchased from Sigma-Aldrich) at a final concentration of 100 μM and reacting for 2 hours to induce senescence of the ADSCs, replacing the culture medium with a fresh culture medium, adding thereinto TC (trans-cinnamaldehyde, purchased from Sigma-Aldrich) at a final concentration of 0, 2, 4 or 6 μM and reacting for 6 hours, so as to obtain “H2O2 group (i.e., treated with H2O2 for 2 hours, but not treated with TC),” “H2O2+TC2 group (i.e., treated with H2O2 for 2 hours and then treated with 2 μM of TC for 6 hours),” “H2O2+TC4 group (i.e., treated with H2O2 for 2 hours and then treated with 4 μM of TC for 6 hours),” and “H2O2+TC6 group (i.e., treated with H2O2 for 2 hours and then treated with 6 μM of TC for 6 hours)” ADSCs. Samples of the “untreated group,” “H2O2 group,” and “H2O2+TC6 group” ADSCs obtained from Example 1 (1) were washed with phosphate buffered saline (PBS) twice, fixed with 3.7% formaldehyde, and blocked with 10% FBS (diluted in PBS). Then, the cells of each sample were washed with PBS once, and reacted with a Ki67 antibody (purchased from Novus biological) at 4° C. overnight. […]

[2] = tested on: ADSCs; assay: Semiquantitative RT-PCR of senescence, cell cycle and pluripotency genes in ADSCs; type: cell-based, human
Method: Four portions of equal volume of the above culture medium containing the sub-cultured ADSCs were separately handled by adding thereinto H2O2 (purchased from Sigma-Aldrich) at a final concentration of 100 μM and reacting for 2 hours to induce senescence of the ADSCs, replacing the culture medium with a fresh culture medium, adding thereinto TC (trans-cinnamaldehyde, purchased from Sigma-Aldrich) at a final concentration of 0, 2, 4 or 6 μM and reacting for 6 hours, so as to obtain “H2O2 group (i.e., treated with H2O2 for 2 hours, but not treated with TC),” “H2O2+TC2 group (i.e., treated with H2O2 for 2 hours and then treated with 2 μM of TC for 6 hours),” “H2O2+TC4 group (i.e., treated with H2O2 for 2 hours and then treated with 4 μM of TC for 6 hours),” and “H2O2+TC6 group (i.e., treated with H2O2 for 2 hours and then treated with 6 μM of TC for 6 hours)” ADSCs.
The total cellular RNA of the ADSCs, BMMSCs and WJSCs in each sample of the group obtained from Example 1 (1) were extracted with an RNeasy Mini kit (purchased from Qiagen), and then reverse transcribed into cDNA by a reverse transcription kit (RT Pre Mix, purchased from iNtRON Biotechnology).
Each of the cDNA of the ADSCs of “untreated group,” “H2O2 group” and “H2O2+TC6 group” from Experiment (3-1) was handled as follows. […] The mixture was then placed in a revers transcription polymerase chain reaction (RT-PCR) machine. The RT-PCR reaction conditions were set as follows: i) 94° C. for 30 seconds, 55° C. for 30 seconds, and […] for 60 seconds, repeated for 30 cycles; ii) 72° C. for 10 minutes; and iii) cooling to 4° C. to stop the reaction. The RT-PCR product was analyzed by 2% agarose gel electrophoresis at a voltage of 100 volts for 30 minutes. Then, the gel was stained with ethidium bromide (EtBr) for 10 minutes, and photographed by a gel image documentation system (DOC PRINT DP-001FDC, VilberLourmat France).

[3] = tested on: WJSCs; assay: SA-β-gal activity assay in WJSCs; type: cell-based
Method: Three portions of equal volume of the above culture medium containing the sub-cultured WJSCs were provided. The first and second portions were handled by adding thereinto H2O2 at a final concentration of 100 μM, reacting for 2 hours to induce senescence of the WJSCs, replacing the culture medium with a fresh culture medium, adding thereinto TC at final concentrations of 0 and 6 μM, respectively, and reacting for 6 hours to obtain “H2O2 group (i.e., treated with H2O2 for 2 hours, but not treated with TC)” and “H2O2+TC6 group (i.e., treated with H2O2 for 2 hours and then treated with 6 μM of TC for 6 hours) WJSCs. The third portion without any treatment was referred to as “untreated group” WJSCs.
The ADSCs in each sample of the group obtained from Example 1 (1) were washed with PBS twice, fixed with 3% formaldehyde and washed with PBS once. […]
The staining solution was removed. […] The cells were observed and photographed under a microscope with 10-fold magnification, and the percentage of SA-β-gal activity-positive cells was calculated. […]

[4] = tested on: SIRT1 gene; assay: Quantitative RT-PCR of SIRT1 gene in WJSCs; type: cell-based
Method: Three portions of equal volume of the above culture medium containing the sub-cultured WJSCs were provided. The first and second portions were handled by adding thereinto H2O2 at a final concentration of 100 μM, reacting for 2 hours to induce senescence of the WJSCs, replacing the culture medium with a fresh culture medium, adding thereinto TC at final concentrations of 0 and 6 μM, respectively, and reacting for 6 hours to obtain “H2O2 group (i.e., treated with H2O2 for 2 hours, but not treated with TC)” and “H2O2+TC6 group (i.e., treated with H2O2 for 2 hours and then treated with 6 μM of TC for 6 hours) WJSCs. The third portion without any treatment was referred to as “untreated group” WJSCs. […]
Each of the cDNA of ADSCs of different groups from Experiment (3-1) was handled as follows. […] The mixture was then placed in a real-time quantitative PCR machine (ABI prism 7700 sequence detection system) to perform a reaction for quantifying the gene expression levels. […]
The steps as shown in Experiment (3-2) were repeated, but the cDNA was substituted with the cDNA of the BMMSCs or WJSCs from Experiment (3-1) to conduct quantitative RT-PCR.

[5] = H2O2+TC6 group ADSCs compared to H2O2 group
[6] = H2O2 group ADSCs compared to untreated group

| Structure (SMILES) | number of the Ki67-positive cells ([1]; H2O2+TC6 group ADSCs (6 μM TC 6 h after H2O2)) | expression level of the NANOG gene (semiquantitative RT-PCR) [2, 5] | expression level of the OCT4 gene (semiquantitative RT-PCR) [2, 5] | expression level of the SIRT1 gene (semiquantitative RT-PCR) [2, 5] | expression level of the p21 gene (semiquantitative RT-PCR) [2, 5] | expression level of the p53 gene (semiquantitative RT-PCR) [2, 5] | number of the SA-β-gal activity-positive WJSCs ([3]; H2O2+TC6 group (6 μM TC 6 h after H2O2) compared to H2O2 group) | expression level of SIRT1 gene in WJSCs ([4]; H2O2+TC6 group compared to H2O2 group) | number of the Ki67-positive cells ([1]; H2O2 group ADSCs (100 μM 2 h), compared to untreated group) | expression level of the SIRT1 gene (semiquantitative RT-PCR) [2, 6] | expression level of the p21 gene (semiquantitative RT-PCR) [2, 6] | expression level of the p53 gene (semiquantitative RT-PCR) [2, 6] | number of the SA-β-gal activity-positive WJSCs ([3]; H2O2 group (100 μM 2 h) compared to untreated group) | expression level of SIRT1 gene in WJSCs ([4]; H2O2 group compared to untreated group) |
| --- | --- | --- | --- | --- | --- | --- | --- | --- | --- | --- | --- | --- | --- | --- |
| O=C/C=C/c1ccccc1 [TC, trans-cinnamaldehyde] | increased to be similar to that in “untreated group” | did not show significant difference | did not show significant difference | significantly increased | significantly decreased | significantly decreased | significantly reduced | significantly increased | – | – | – | – | – | – |
| OO [H2O2, reference compound] | – | – | – | – | – | – | – | – | significantly reduced | significantly decreased | significantly increased | significantly increased | significantly increased | significantly reduced |

— US11020358B2, “Method for the anti-senescence of and/or rejuvenating stem cells” (GWO XI STEM CELL APPLIED TECHNOLOGY CO., LTD., priority 2014, dated 2021)
